The record followed here is US10968178B2, “IP6K inhibitors” (TAKEDA PHARMACEUTICAL COMPANY LIMITED, priority 2017, dated 2021).

Each structure is given as a SMILES string.

What all share (format): biochemical
Assay [1] deals with T1, human IP6K1 (Homo sapiens, UniProt Q92551).
T1 construct: human IP6K1 (1-441) gene; GST; made in house; host or cells: Sf-9 insect cells
Put plainly: IP6K enzyme inhibitory assay (ADP-Glo Kinase Assay), human IP6K1. The following applies: compound concentration 0.1 μM; read-out: ADP-Glo method inhibitory rate (%) human IP6K1. The method, boiled down:
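Inhibition of human IP6K1 was determined with Promega's ADP-Glo Kinase Assay in 384 well plates. Test compound diluted in assay buffer (20 mM HEPES (pH 7.5), 6 mM MgCl2, 0.01% Tween-20, 1 mM DTT) was added at 2 μL, then 2 μL of enzyme started the reaction for 60 min at room temperature. Next came 3 μL ADP-Glo solution for 30 min and 6 μL Kinase-Detection solution for 60 min. Luminescence was read on an Envision plate reader.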
(In general: In ADP-Glo the light output rises with the ADP produced.)

Assay [2] has as its target T2, human IP6K3 (Homo sapiens, UniProt Q96PC2).
T2 construct: human IP6K3 (1-410) gene; made in house; host or cells: BL21 (DE3) Escherichia coli
T2 sequence (Q96PC2 1-410): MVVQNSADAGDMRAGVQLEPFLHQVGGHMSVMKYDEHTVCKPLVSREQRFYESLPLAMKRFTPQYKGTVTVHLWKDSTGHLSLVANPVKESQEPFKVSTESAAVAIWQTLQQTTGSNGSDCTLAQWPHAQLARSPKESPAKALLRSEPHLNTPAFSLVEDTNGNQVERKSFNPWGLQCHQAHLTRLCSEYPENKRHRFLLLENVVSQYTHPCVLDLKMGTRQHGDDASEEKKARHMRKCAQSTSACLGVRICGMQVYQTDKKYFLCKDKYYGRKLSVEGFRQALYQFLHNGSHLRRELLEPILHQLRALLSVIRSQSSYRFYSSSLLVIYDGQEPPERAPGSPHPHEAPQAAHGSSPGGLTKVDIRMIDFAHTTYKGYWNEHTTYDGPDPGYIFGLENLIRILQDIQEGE
Put plainly: IP6K enzyme inhibitory assay (ADP-Glo Kinase Assay), human IP6K3. The following applies: compound concentration 0.1 μM; read-out: ADP-Glo method inhibitory rate (%) human IP6K3. The method in brief: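 Recombinant human IP6K (IP6K3 residues 1-410, E. coli, Ni-NTA purified) incubated with compound in 20 mM HEPES pH 7.5, 6 mM MgCl2, 0.01% Tween-20, 1 mM DTT for 60 min at room temperature. ADP formed read as luminescence by ADP-Glo.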

Assay [3] has as its target T3, human IP6K2 (Homo sapiens, UniProt Q9UHH9).
T3 construct: human IP6K2 (1-426) gene; GST; made in house; host or cells: Sf-9 insect cells
T3 sequence (Q9UHH9 1-426): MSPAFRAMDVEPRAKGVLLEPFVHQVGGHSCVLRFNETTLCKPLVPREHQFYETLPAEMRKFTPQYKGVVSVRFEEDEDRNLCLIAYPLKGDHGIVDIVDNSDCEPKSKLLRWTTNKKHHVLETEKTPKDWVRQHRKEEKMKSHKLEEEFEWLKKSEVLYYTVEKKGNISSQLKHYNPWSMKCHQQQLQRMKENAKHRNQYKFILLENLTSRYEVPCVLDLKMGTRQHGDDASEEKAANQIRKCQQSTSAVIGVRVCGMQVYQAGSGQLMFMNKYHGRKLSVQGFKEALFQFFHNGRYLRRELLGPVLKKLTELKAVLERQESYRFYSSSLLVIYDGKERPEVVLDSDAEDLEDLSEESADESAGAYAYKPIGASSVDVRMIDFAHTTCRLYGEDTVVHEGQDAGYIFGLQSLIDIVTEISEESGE
Put plainly: IP6K enzyme inhibitory assay (ADP-Glo Kinase Assay), human IP6K2. The note with it: compound concentration 0.1 μM; read-out: ADP-Glo method inhibitory rate (%) human IP6K2. The method in brief: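 The inhibitory activity against human IP6K2 was measured with Promega's ADP-Glo Kinase Assay in 384 well plates. Test compound, diluted in assay buffer (20 mM HEPES (pH 7.5), 6 mM MgCl2, 0.01% Tween-20, 1 mM DTT), was added at 2 μL. Adding 2 μL of diluted enzyme started the reaction, which ran for 60 min at room temperature. Next, 3 μL ADP-Glo solution (30 min) and 6 μL Kinase-Detection solution (60 min) were added, and luminescence was read on an Envision plate reader.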

T1 sequence (Q92551 whole entry): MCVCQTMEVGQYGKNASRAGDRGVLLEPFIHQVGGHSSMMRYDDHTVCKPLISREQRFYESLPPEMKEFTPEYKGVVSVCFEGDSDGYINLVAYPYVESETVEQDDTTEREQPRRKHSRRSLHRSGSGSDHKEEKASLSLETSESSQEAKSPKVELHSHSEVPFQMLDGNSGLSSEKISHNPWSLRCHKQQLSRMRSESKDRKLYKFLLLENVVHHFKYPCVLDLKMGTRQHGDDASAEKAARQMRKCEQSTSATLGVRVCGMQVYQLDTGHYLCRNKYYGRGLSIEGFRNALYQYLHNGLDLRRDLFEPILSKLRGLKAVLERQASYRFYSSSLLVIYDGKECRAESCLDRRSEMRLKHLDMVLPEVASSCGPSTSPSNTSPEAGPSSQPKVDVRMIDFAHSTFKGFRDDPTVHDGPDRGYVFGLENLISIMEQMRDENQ

For the compound `Cc1cc(C(F)(F)F)cnc1O[C@H]1CC[C@]2(CC1)C(=O)Nc1ccc(C(=O)O)nc12` [Example 103, (1s,4s)-4-((3-methyl-5-(trifluoromethyl)pyridin-2-yl)oxy)-2′-oxo-1′,2′-dihydrospiro[cyclohexane-1,3′-pyrrolo[3,2-b]pyridine]-5′-carboxylic acid], the figures for the inhibition at 0.1 µM in assay [1], in assay [2] and in assay [3] were 98%, 99% and 99%, respectively.
For the compound `Cc1ccc(C#N)c(O[C@H]2CC[C@]3(CC2)C(=O)Nc2ccc(C(=O)O)cc23)n1` [Example 104, (1s,4s)-4-((3-cyano-6-methylpyridin-2-yl)oxy)-2′-oxo-1′,2′-dihydrospiro[cyclohexane-1,3′-indole]-5′-carboxylic acid], the inhibition at 0.1 µM was determined as 95% in assay [1], 98% in assay [2] and 99% in assay [3].
Consider `O=C(O)c1ccc2c(n1)[C@]1(CC[C@@H](Oc3ncc(C(F)(F)F)cc3Cl)CC1)C(=O)N2` [Example 105, (1r,4r)-4-((3-chloro-5-(trifluoromethyl)pyridin-2-yl)oxy)-2′-oxo-1′,2′-dihydrospiro[cyclohexane-1,3′-pyrrolo[3,2-b]pyridine]-5′-carboxylic acid], for which the inhibition at 0.1 µM in assay [1] was found to be 86%; in assay [2], 95%; in assay [3], 94%.
On to `Cc1c(Cl)cnc(O[C@H]2CC[C@]3(CC2)C(=O)Nc2ccc(C(=O)O)nc23)c1C#N` [Example 106, (1s,4s)-4-((5-chloro-3-cyano-4-methylpyridin-2-yl)oxy)-2′-oxo-1′,2′-dihydrospiro[cyclohexane-1,3′-pyrrolo[3,2-b]pyridine]-5′-carboxylic acid], for which the inhibition at 0.1 µM in assay [1] amounted to 96%; in assay [2], 95%; in assay [3], 97%.
With `O=C(O)c1ccc2c(c1)[C@]1(CC[C@H](Oc3ccccc3)CC1)C(=O)N2` [Example 107, (1s,4s)-2′-oxo-4-phenoxy-1′,2′-dihydrospiro[cyclohexane-1,3′-indole]-5′-carboxylic acid], the inhibition at 0.1 µM stood at 94% in assay [1], 92% in assay [2] and 93% in assay [3].
Turning to `O=C(O)c1ccc2c(c1)[C@]1(CC[C@H](Oc3ccc(Cl)cc3)CC1)C(=O)N2` [Example 108, (1s,4s)-4-(4-chlorophenoxy)-2′-oxo-1′,2′-dihydrospiro[cyclohexane-1,3′-indole]-5′-carboxylic acid], the inhibition at 0.1 µM stood at 97% in assay [1], 99% in assay [2] and 101% in assay [3].
For the compound `O=C(O)c1ccc2c(n1)[C@]1(CC[C@@H](Oc3ncc(C4CC4)cc3C(F)(F)F)CC1)C(=O)N2` [Example 109, (1r,4r)-4-((5-cyclopropyl-3-(trifluoromethyl)pyridin-2-yl)oxy)-2′-oxo-1′,2′-dihydrospiro[cyclohexane-1,3′-pyrrolo[3,2-b]pyridine]-5′-carboxylic acid], the inhibition at 0.1 µM in assay [1] came to 94%; in assay [2], 95%; in assay [3] it was 95%.
For the compound `N#Cc1cc(Cl)cnc1O[C@H]1CC[C@]2(CC1)C(=O)Nc1ccc(C(=O)O)nc12` [Example 110, (1s,4s)-4-((5-chloro-3-cyanopyridin-2-yl)oxy)-2′-oxo-1′,2′-dihydrospiro[cyclohexane-1,3′-pyrrolo[3,2-b]pyridine]-5′-carboxylic acid], the inhibition at 0.1 µM in assay [1] stood at 84%; in assay [2], 96%; in assay [3], 96%.
For the compound `O=C(O)c1ccc2c(n1)[C@]1(CC[C@H](Oc3ncc(C4CC4)cc3Cl)CC1)C(=O)N2` [Example 111, (1s,4s)-4-((3-chloro-5-cyclopropylpyridin-2-yl)oxy)-2′-oxo-1′,2′-dihydrospiro[cyclohexane-1,3′-pyrrolo[3,2-b]pyridine]-5′-carboxylic acid], the inhibition at 0.1 µM in assay [1] is 91%; in assay [2], 98%; in assay [3] it was 99%.
Take `Cc1cc(C(F)(F)F)cnc1O[C@H]1CC[C@@]2(CC1)C(=O)Nc1ccc(C(=O)O)nc12` [Example 112, (1r,4r)-4-((3-methyl-5-(trifluoromethyl)pyridin-2-yl)oxy)-2′-oxo-1′,2′-dihydrospiro[cyclohexane-1,3′-pyrrolo[3,2-b]pyridine]-5′-carboxylic acid]: the inhibition at 0.1 µM in assay [1] stood at 90%; in assay [2], 97%; in assay [3], 90%.
As for `O=C(O)c1ccc2c(c1)[C@]1(CC[C@@H](Oc3ccccc3)CC1)C(=O)N2` [Example 113, (1r,4r)-2′-oxo-4-phenoxy-1′,2′-dihydrospiro[cyclohexane-1,3′-indole]-5′-carboxylic acid], the inhibition at 0.1 µM in assay [1] is 79%; in assay [2], 85%; in assay [3], 79%.
For the compound `O=C(O)c1ccc2c(c1)[C@]1(CC[C@@H](Oc3ccc(Cl)cc3)CC1)C(=O)N2` [Example 114, (1r,4r)-4-(4-chlorophenoxy)-2′-oxo-1′,2′-dihydrospiro[cyclohexane-1,3′-indole]-5′-carboxylic acid], the values for the inhibition at 0.1 µM in assay [1], in assay [2] and in assay [3] were 99%, 96% and 101%, respectively.
On the same counts, the results for `O=C(O)c1ccc2c(n1)[C@]1(CC[C@H](Oc3ncc(C(F)(F)F)cc3Cl)CC1)C(=O)N2` [Example 115, (1s,4s)-4-((3-chloro-5-(trifluoromethyl)pyridin-2-yl)oxy)-2′-oxo-1′,2′-dihydrospiro[cyclohexane-1,3′-pyrrolo[3,2-b]pyridine]-5′-carboxylic acid] are 97%, 99% and 99%.
